This passage reports EC50 results from patent US9193740B2, “Bismacrocyclic compounds as hepatitis C virus inhibitors” (Enanta Pharmaceuticals, Inc., priority 2009, dated 2015).

For this experiment, the system named is HCV 1b genotype replicon. The experiment is described as follows: Cell-based HCV replicon assay (qRT-PCR or luciferase), genotype 1b. The note with it: Hepatitis C virus. The procedure:
Cell-Based Replicon Assay
The anti-HCV activity of the compounds is determined using the cell-based replicon assay and the HCV replication assay described in US Publication No: 2010/0003214, incorporated herein by reference in its entirety.
HCV Replicon Assay—Luciferase
Since clinical drug resistance often develops in viral infections following single agent therapies, there is a need to assess the additive, antagonistic, or synergistic properties of combination therapies. We use the HCV replicon system to assess the potential use of the compound of the present invention or in combination therapies with Interferon alpha, cyclosporine analogs and inhibitors targeting other HCV proteins. The acute effects of a single or combinations of drugs are studied in the “Huh-luc/neo-ET” replicon with each chemical agent titrated in an X or Y direction in a 6 point two-fold dilution curve centered around the EC50 of each drug. […] Using this method, the combination data are analyzed for antagonistic, additive, or synergistic combination effects across the entire combination surface created by the diluted compounds in combination. […]
In general terms: Replicon systems follow genome replication, usually without infectious particles.

SMILES strings stand for the structures.

By EC50 is commonly meant the concentration needed to bring the measured effect to its halfway point. In the case of `CC1(C)CC/C=C/C(F)(F)c2nc3ccccc3nc2O[C@@H]2C[C@H]3C(=O)N[C@]4(C(=O)NS(=O)(=O)C5CC5)C[C@H]4/C=C\CCCCC[C@H](NC(=O)OC1)C(=O)N3C2` [Example 8], the EC50 is less than 1 nM. Take `O=C1N[C@H]2CCCCC/C=C\[C@@H]3C[C@@]3(C(=O)NS(=O)(=O)C3CC3)NC(=O)[C@@H]3C[C@H](CN3C2=O)Oc2nc3ccccc3nc2-c2cccc(c2)OCC(F)(F)CO1` [Example 2]: the EC50 is less than 1 nM.
